Laboratory results as given in US20160326135A1, “2-HETARYL-PYRIDAZINONE DERIVATIVES AND THEIR USE AS HERBICIDES” (BAYER CROPSCIENCE AKTIENGESELLSCHAFT, priority 2013, published 2016).

Tests used:
Format in all cases: in vivo
Abutilon theophrasti = assay: Pre-emergence herbicidal action against harmful plants; details: application rate 320 g/ha, scored visually after 3 weeks, 100% = plants have died, 0% = like control plants
Text: (§1) Seeds of monocotyledonous and dicotyledonous weed plants and crop plants are laid out in wood-fiber pots in sandy loam and covered with soil. The compounds of the invention, formulated in the form of wettable powders (WP) or as emulsion concentrates (EC), are then applied to the surface of the covering soil in the form of an aqueous suspension or emulsion at a water application rate equating to 600 to 800 I/ha, with addition of 0.2% wetting agent. After the treatment, the pots are placed in a greenhouse and kept under good growth conditions for the trial plants. The damage to the trial plants is scored visually after a trial duration of 3 weeks by comparison with untreated controls (herbicidal activity in percent (%): 100% efficacy=the plants have died, 0% efficacy=like control plants). In this trial, for example, compound no.

Amaranthus retroflexus [1] = assay: as above; details: application rate 320 g/ha, scored visually after 3 weeks, 100% = plants have died, 0% = like control plants
Text: as §1

Echinochloa crus galli [2] = assay: as above; details: application rate 320 g/ha, scored visually after 3 weeks, 100% = plants have died, 0% = like control plants
Text: as §1

Matricaria inodora [3] = assay: as above; details: application rate 320 g/ha, scored visually after 3 weeks, 100% = plants have died, 0% = like control plants
Text: as §1

Setaria viridis [4] = assay: as above; details: application rate 320 g/ha, scored visually after 3 weeks, 100% = plants have died, 0% = like control plants
Text: as §1

Stellaria media [5] = assay: as above; details: application rate 320 g/ha, scored visually after 3 weeks, 100% = plants have died, 0% = like control plants
Text: as §1

Veronica persica [6] = assay: as above; details: application rate 320 g/ha, scored visually after 3 weeks, 100% = plants have died, 0% = like control plants
Text: as §1

Viola tricolor [7] = assay: as above; details: application rate 320 g/ha, scored visually after 3 weeks, 100% = plants have died, 0% = like control plants
Text: as §1

Amaranthus retroflexus [8] = assay: Post-emergence herbicidal action against harmful plants; details: application rate 80 g/ha, scored visually after about 3 weeks, 100% = plants have died, 0% = like control plants
Procedure: (§2) Seeds of monocotyledonous and dicotyledonous weed and crop plants are laid out in sandy loam in wood-fiber pots, covered with soil and cultivated in a greenhouse under good growth conditions. 2 to 3 weeks after sowing, the trial plants are treated at the one-leaf stage. The compounds of the invention, formulated in the form of wettable powders (WP) or as emulsion concentrates (EC), are then sprayed onto the green parts of the plants in the form of an aqueous suspension or emulsion at a water application rate equating to 600 to 800 I/ha, with addition of 0.2% wetting agent. After the trial plants have been left to stand in a greenhouse under optimal growth conditions for about 3 weeks, the efficacy of the formulations is scored visually in comparison to untreated controls (herbicidal action in percent (%): 100% efficacy=the plants have died, 0% efficacy=like control plants). In this trial, for example, compound no.

Echinochloa crus galli [9] = assay: as above; details: application rate 80 g/ha, scored visually after about 3 weeks, 100% = plants have died, 0% = like control plants
Procedure: as §2

Ipomoea purpurea = assay: as above; details: application rate 80 g/ha, scored visually after about 3 weeks, 100% = plants have died, 0% = like control plants
Procedure: as §2

Matricaria inodora [10] = assay: as above; details: application rate 80 g/ha, scored visually after about 3 weeks, 100% = plants have died, 0% = like control plants
Procedure: as §2

Setaria viridis [11] = assay: as above; details: application rate 80 g/ha, scored visually after about 3 weeks, 100% = plants have died, 0% = like control plants
Procedure: as §2

Stellaria media [12] = assay: as above; details: application rate 80 g/ha, scored visually after about 3 weeks, 100% = plants have died, 0% = like control plants
Procedure: as §2

Veronica persica [13] = assay: as above; details: application rate 80 g/ha, scored visually after about 3 weeks, 100% = plants have died, 0% = like control plants
Procedure: as §2

Viola tricolor [14] = assay: as above; details: application rate 80 g/ha, scored visually after about 3 weeks, 100% = plants have died, 0% = like control plants
Procedure: as §2

Cc1cnn(-c2ccc(C(F)(F)F)c(=O)n2C)c(=O)c1O [1-3, 4-hydroxy-5-methyl-2-(1-methyl-3-(trifluoromethyl)pyrid-2-on-6-yl)-pyridazin-3-one]
at least 80%: herbicidal activity in percent (efficacy) (Abutilon theophrasti) | herbicidal activity in percent (efficacy) (Amaranthus retroflexus [1]) | herbicidal activity in percent (efficacy) (Echinochloa crus galli [2]) | herbicidal activity in percent (efficacy) (Matricaria inodora [3]) | herbicidal activity in percent (efficacy) (Setaria viridis [4]) | herbicidal activity in percent (efficacy) (Stellaria media [5]) | herbicidal activity in percent (efficacy) (Veronica persica [6]) | herbicidal activity in percent (efficacy) (Viola tricolor [7]) | herbicidal action in percent (efficacy) (Amaranthus retroflexus [8]) | herbicidal action in percent (efficacy) (Echinochloa crus galli [9]) | herbicidal action in percent (efficacy) (Ipomoea purpurea) | herbicidal action in percent (efficacy) (Matricaria inodora [10]) | herbicidal action in percent (efficacy) (Setaria viridis [11]) | herbicidal action in percent (efficacy) (Stellaria media [12]) | herbicidal action in percent (efficacy) (Veronica persica [13]) | herbicidal action in percent (efficacy) (Viola tricolor [14])
